Source: patent US4564609A, “4-Substituted-2-azetidinone compound, process of producing the compounds, and medicaments containing the compounds” (Yamanouchi Pharmaceutical Co., Ltd., priority 1983, dated 1986)
Where two headings read alike, the source gives them in different places.

Assays:
[1] = test system: male mice; assay: Pentobarbital-induced hypothermia (Experiment 1); assay type: in vivo; details: i.v. 10 min after pentobarbital 55 mg/kg i.p.; rectal temperature 30 min after test compound; dose reducing hypothermia of control group by 1.5° C.
Experimental: Pentobarbital-induced hypothermia:
Nine male mice weighing 18 to 22 g were used for each dosage of the test compounds. Mice were given i.v. various doses of TRH or tested compounds 10 min. after pentobarbital (55 mg/kg i.p.). Rectal temperature was measured before pentobarbital dosing and immediately before and 30 min. after the test compounds. Effects of test compounds were evaluated as ED1.5° C., the dose required to reduce by 1.5° C. pentobarbital-hypothermia of control group of mice which received only pentobarbital and saline.

[2] = test system: male mice; assay: Disturbance of consciousness induced by concussive head injury (Experiment 2); assay type: in vivo; details: i.v. 10 min before concussive head injury, dose shortening spontaneous movement time of control group by 50%; for ED50: Mus musculus, iv, read-out: Onset time of spontaneous movement ED50%
Experimental: Disturbance of consciousness induced by concussive head injury:
Nine male mice weighing 18 to 22 g were used for each dosage of the test compounds. An acrylate weight containing lead (20.5 g, 19 mm in both diameter and thickness) was dropped to the head of mice from a 18 cm height. Mice were induced loss of consciousness and they remained motionless for some period. The time from the shock up to the onset of spontaneous movement was recorded as the spontaneous movement time. Test compounds were administered intravenously 10 min. before adding concussive head injury and effects of test compounds were evaluated as ED50%, the dose required to shorten by 50% the spontaneous movement time of control group.

[3] = test system: male mice; details: mouse, in vivo, iv
[4] = test system: male mice; assay: Acute toxicity (Experiment 3); details: intravenous

Compound | Reversal effect against pentobarbital-hypothermia ED1.5° C. [1] [mg/kg] | ED50 [2] [mg/kg] | LD50 (i.v.) [3] | Onset time of spontaneous movement ED50% [2] [mg/kg] | LD50 (i.v.) [4] [mg/kg]
NC(=O)[C@@H]1CCCN1C(=O)[C@H](Cc1c[nH]cn1)NC(=O)[C@@H]1CC(=O)N1 [Example 1, N^α -[(S)-2-azetidinone-4-carbonyl]-L-histidyl-L-prolinamide] | 0.01 | 0.1 | higher than 1493 mg/kg |  | 
O=C1C[C@@H](C(=O)N[C@@H](Cc2c[nH]cn2)C(=O)N2CCC[C@H]2C(=O)NCCO)N1 [Example 4, N^α -[(S)-2-azetidinone-4-carbonyl]-L-histidyl-N-(2-hydroxyethyl)-L-prolinamide] |  | 0.35 |  |  | 
NC(=O)[C@@H]1CSCN1C(=O)[C@H](Cc1c[nH]cn1)NC(=O)[C@@H]1CC(=O)N1 [Example 6, 3-[N^α -[(S)-2-azetidinone-4-carbonyl]-L-histidyl]-L-thiazolidine-4-carboxamide] | 0.05 |  |  |  | 
Cn1cnc(CC(NC(=O)C2CC(=O)N2)C(=O)N2CCCC2C(N)=O)c1 [Example 19, N^α -[(s)-2-azetidinone-4-carbonyl]-N^.tau. -methyl-L-histidyl-L-prolinamide] | 0.004 |  |  |  | 
NC(=O)[C@@H]1CCCN1C(=O)[C@H](Cc1cnc[nH]1)NC(=O)[C@@H]1CCC(=O)N1 [TRH, L-pyroglutamyl-L-histidyl-L-prolinamide, reference compound] | 0.1 |  |  | 2.5 | 751
